Legend:
Listeria innocua = experiment: Inactivation of bacteria in simulated wash water; format: cell-based
Protocol: The activity and inactivation of bacteria in simulated wash water exposed to the functionalized particles and conventional chlorine sanitizers were evaluated and compared. More than a 5-log reduction of Listeria innocua in wash water was obtained after a 0.5-min exposure to YCWPs based sanitizer at the concentration of 0.1 mg/mL. In comparison, the conventional chlorine-based sanitizer (sodium hypochlorite) needed 1.5 min to achieve a 5-log reduction. In the presence of organic matter (COD=2000 mg/L), more than 5 log reduction of Listeria innocua in wash water was obtained after 5 min exposure to YCWPs based sanitizer.

E. coli O157:H7 = experiment: Inactivation of bacteria on fresh produce (lettuce leaf) surfaces; format: cell-based, Escherichia coli O157:H7; conditions: Example 2; 20-min exposure, YCWPs@halamine 0.25 mg/ml; sodium hypochlorite 20 ppm free chlorine
Protocol: FIG. 6B is a graph illustrating inactivation of E. coli O157:H7 on fresh produce surfaces after 20-min exposure to YCWPs@halamine (0.25 mg/ml).
The inactivation of bacteria on fresh produce surfaces was also evaluated. These YCWPs based sanitizer was also found to be effective in causing more than 5 log reductions in E. coli O157:H7 on the surface of lettuce leaves as shown in FIG. 6B. The conventional chlorine-based sanitizer (sodium hypochlorite, 20 ppm free chlorine) achieved less than 2-log reduction of the inoculated bacteria.
To inoculate fresh produce, samples (e.g., spinach, lettuce, tomato, and orange) were first rinsed with 70% ethanol and dried at 25° C. before sample preparation. Fresh produce samples were then prepared by cutting spinach and lettuce leaves into disks with 1 cm of diameter and tomato and orange skins into squares of 9 cm^2. […]
After inoculation and incubation, the meat and fresh produce samples were transferred to a simulated wash bath with added particle-based sanitizers. […] The samples were stirred in a shaking bath a speed of 250 rpm for a pre-determined period (1, 2, 5, and 10 min). […]
To quantify the reduction in microbial count, the samples after treatment were transferred to sterile tubes containing silicon-carbide beads and 10 mL of PBS, and vortexed for 60 seconds to recover the attached bacteria. […]

L. innocua 3-day biofilm = experiment: Inactivation of 3-day cultured biofilm on plastic surface, plate counting assay; format: cell-based, Listeria innocua; conditions: 1-hour exposure
Protocol: FIG. 6A is a graph illustrating inactivation of L. innocua in 3-day biofilm after 1-hour exposure: (a) metabolic activity of biofilm; (b) results of plate counting assay
The antimicrobial activity was characterized based on the metabolic activity of the biofilm measured using Resazurin and a plate counting assay.
The metabolic activity of biofilm after a 1-hour exposure to the particulate sanitizer was evaluated. The time required to achieve maximum fluorescence intensity indicated the relative level of metabolic activity of bacterial cells under different incubation conditions. Listeria biofilms that were incubated with PBS were treated as a control. […] The conventional sanitizer (sodium hypochlorite) only achieved 3-log reduction after a 1-hour exposure.
Pre-formed biofilms were treated with either a selected particle-based sanitizer or with a conventional sanitation procedure for the sanitation of a food contract surface. […] Quantification of the treatment was assessed based on measuring the changes in the metabolic activity of bacterial cells. Quantification of the residual biomass was conducted using crystal violet staining and calcofluor labeling and the standard plate counting of the bacterial cells after dispersing the biofilms using an ultrasonic washer.

## OCl [sodium hypochlorite]
Listeria innocua; COD=2000 mg/L, 20 ppm free chlorine, 20 minutes of exposure
  reduction of bacterial population in wash water in the presence of organic matter: did not reduce the bacterial population
Listeria innocua; simulated wash water
  time needed to achieve a 5-log reduction of Listeria innocua in wash water: 1.5 min
E. coli O157:H7
  reduction in E. coli O157:H7 on the surface of lettuce leaves: less than 2 log
L. innocua 3-day biofilm
  reduction of the bacterial population in the 3-day biofilm: 3 log
